Source: PubChem BioAssay AID256 (DTP/NCI, 2004)
Several values for one entry are separate records, joined by “and”; a condition that tells them apart may be missing. Identical values can stand only once. Inconclusive results and toxic doses are left out. How the source made its calls: active means survival T/C of 150% or more; inactive means T/C below 125% in these data. Non-standard residues stand in square brackets, D forms with d. Residues, ends and D or L forms follow the SMILES beside them. ξ: configuration not given here. *: point of attachment. ξF = NC(Cc1ccccc1)C(=O)O; Cbz = O=C(OCc1ccccc1)*

Test system: CD2F1 mice, L1210 leukemia ip, survival T/C
Assay: NCI In Vivo Anticancer Drug Screen. Data for tumor model L1210 Leukemia (intraperitoneal) in CD2F1 (CDF1) mice
Conditions: higher = longer survival
How it was run: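 Vehicle-treated tumor-bearing mice served as controls (C) for compound-treated mice (T). Reported figure is T divided by C.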

[1] = endpoint: mean survival time, dose: 100.0 mg/kg/injection, schedule: Q04DX003 (ip), vehicle: saline
[2] = endpoint: mean survival time, dose: 400.0 mg/kg/injection, schedule: Q04DX003 (ip), vehicle: saline
[3] = endpoint: mean survival time, dose: 50.0 mg/kg/injection, schedule: Q01DX001 (ip), vehicle: saline
[4] = endpoint: mean survival time, dose: 100.0 mg/kg/injection, schedule: Q01DX001 (ip), vehicle: saline
[5] = endpoint: mean survival time, dose: 200.0 mg/kg/injection, schedule: Q01DX001 (ip), vehicle: saline
[6] = endpoint: mean survival time, dose: 400.0 mg/kg/injection, schedule: Q01DX001 (ip), vehicle: saline
[7] = endpoint: mean survival time, dose: 75.0 mg/kg/injection, schedule: Q01DX001 (ip), vehicle: saline
[8] = endpoint: mean survival time, dose: 100.0 mg/kg/injection, schedule: Q04DX003 (ip), vehicle: saline with Tween-80
[9] = endpoint: mean survival time, dose: 200.0 mg/kg/injection, schedule: Q04DX003 (ip), vehicle: saline with Tween-80

Measured: T/C

CSc1ncnc2c1cnn2C1OC(COC(C)=O)C(OC(C)=O)C1OC(C)=O (configuration not stated)
inactive: endpoint: median survival time, dose: 9.0 mg/kg/injection, schedule: Q01DX005 (ip), vehicle: distilled water + Tween-80 101 % of control | endpoint: median survival time, dose: 9.0 mg/kg/injection, schedule: Q01DX009 (ip), vehicle: distilled water + Tween-80 100 % of control | endpoint: median survival time, dose: 18.0 mg/kg/injection, schedule: Q01DX005 (ip), vehicle: distilled water + Tween-80 98 % of control | endpoint: median survival time, dose: 18.0 mg/kg/injection, schedule: Q01DX009 (ip), vehicle: distilled water + Tween-80 101 % of control | endpoint: median survival time, dose: 36.0 mg/kg/injection, schedule: Q01DX005 (ip), vehicle: distilled water + Tween-80 108 % of control | endpoint: median survival time, dose: 36.0 mg/kg/injection, schedule: Q01DX009 (ip), vehicle: distilled water + Tween-80 100 % of control | endpoint: median survival time, dose: 72.0 mg/kg/injection, schedule: Q01DX009 (ip), vehicle: distilled water + Tween-80 107 % of control | endpoint: median survival time, dose: 144.0 mg/kg/injection, schedule: Q01DX005 (ip), vehicle: distilled water + Tween-80 118 % of control | endpoint: median survival time, dose: 144.0 mg/kg/injection, schedule: Q01DX009 (ip), vehicle: distilled water + Tween-80 113 % of control

C[n+]1csc(=S)[nH]1
inactive: [1] 105 % of control | endpoint: mean survival time, dose: 200.0 mg/kg/injection, schedule: Q04DX003 (ip), vehicle: saline 109 % of control | [2] 114 % of control

CCCCN(CCCC)CCNc1ccc(C)c2sc3ccccc3c(=O)c12
inactive: [3] 91 % of control | [4] 88 % of control | endpoint: mean survival time, dose: 100.0 mg/kg/injection, schedule: Q01DX009 (ip), vehicle: saline 101 % of control | [1] 91 % of control | [5] 91 % of control | endpoint: mean survival time, dose: 200.0 mg/kg/injection, schedule: Q01DX009 (ip), vehicle: saline 91 % of control | [6] 88 % of control | endpoint: mean survival time, dose: 400.0 mg/kg/injection, schedule: Q01DX009 (ip), vehicle: saline 94 % of control | [2] 87 % of control

CCOC(=O)CCl
inactive: endpoint: mean survival time, dose: 100.0 mg/kg/injection, schedule: Q04DX003 (ip), vehicle: other 95 % of control | endpoint: mean survival time, dose: 200.0 mg/kg/injection, schedule: Q04DX003 (ip), vehicle: other 90 % of control

O=C(O)C(=O)O.O=C(O)C(=O)O.OO.OO.[Nb]
inactive: endpoint: mean survival time, dose: 12.5 mg/kg/injection, schedule: Q01DX009 (ip), vehicle: water 93 % of control | endpoint: mean survival time, dose: 25.0 mg/kg/injection, schedule: Q01DX009 (ip), vehicle: water 98 % of control | endpoint: mean survival time, dose: 50.0 mg/kg/injection, schedule: Q01DX009 (ip), vehicle: water 87 % of control

CCSC1=[N+](SCC)CCCS1
inactive: [7] 103 % of control

O=c1nc(Sc2ccccc2)ccn1C1OC(CO)C(O)C1O (configuration not stated)
inactive: endpoint: mean survival time, dose: 12.5 mg/kg/injection, schedule: Q01DX005 (ip), vehicle: distilled water + Tween-80 106 % of control | endpoint: mean survival time, dose: 25.0 mg/kg/injection, schedule: Q01DX005 (ip), vehicle: distilled water + Tween-80 103 % of control | endpoint: mean survival time, dose: 50.0 mg/kg/injection, schedule: Q01DX005 (ip), vehicle: distilled water + Tween-80 106 % of control | endpoint: mean survival time, dose: 100.0 mg/kg/injection, schedule: Q01DX005 (ip), vehicle: distilled water + Tween-80 110 % of control | endpoint: mean survival time, dose: 200.0 mg/kg/injection, schedule: Q01DX005 (ip), vehicle: distilled water + Tween-80 118 % of control

CN(C1=CC(=O)C(=O)c2ccccc21)c1ccccc1
inactive: [7] 97 % of control | endpoint: mean survival time, dose: 150.0 mg/kg/injection, schedule: Q01DX001 (ip), vehicle: saline 95 % of control | endpoint: mean survival time, dose: 300.0 mg/kg/injection, schedule: Q01DX001 (ip), vehicle: saline 100 % of control

O=P(c1ccccc1)(c1ccccc1)c1ccccc1 (tested in a mixture with another compound)
inactive: endpoint: mean survival time, dose: 12.5 mg/kg/injection, schedule: Q01DX009 (ip), vehicle: other 100 % of control | endpoint: mean survival time, dose: 25.0 mg/kg/injection, schedule: Q01DX009 (ip), vehicle: other 100 % of control | endpoint: mean survival time, dose: 50.0 mg/kg/injection, schedule: Q01DX009 (ip), vehicle: other 101 % of control | endpoint: mean survival time, dose: 100.0 mg/kg/injection, schedule: Q01DX009 (ip), vehicle: other 96 % of control | endpoint: mean survival time, dose: 200.0 mg/kg/injection, schedule: Q01DX009 (ip), vehicle: other 103 % of control

O=C1Nc2ccc(C(=O)O)c(O)c2C1=O
inactive: endpoint: mean survival time, dose: 100.0 mg/kg/injection, schedule: Q01DX001 (ip), vehicle: saline with Tween-80 96 % of control | endpoint: mean survival time, dose: 200.0 mg/kg/injection, schedule: Q01DX001 (ip), vehicle: saline with Tween-80 100 % of control | endpoint: mean survival time, dose: 400.0 mg/kg/injection, schedule: Q01DX001 (ip), vehicle: saline with Tween-80 89 % of control

ClCc1c2c(cc3c1CCCC3)CCCC2
inactive: [8] 105 % of control | [9] 93 % of control

CSc1nc(N)c2ncn(C3C=CC(O)CO3)c2n1 (configuration not stated)
inactive: [3] 106 % of control | [4] 106 % of control | [5] 100 % of control | [6] 116 % of control

O=C(CNC(=O)OCc1ccccc1)NCC(=O)NC(Cc1ccccc1)C(=O)O (stereo not drawn) (Cbz-Gly-Gly-[ξF]-OH)
inactive: [8] 96 % of control | [9] 93 % of control | endpoint: mean survival time, dose: 400.0 mg/kg/injection, schedule: Q04DX003 (ip), vehicle: saline with Tween-80 93 % of control

O=C(Nc1nncs1)c1ccncc1
inactive: endpoint: mean survival time, dose: 12.5 mg/kg/injection, schedule: Q01DX009 (ip), vehicle: saline with Tween-80 95 % of control and 112 % of control | endpoint: mean survival time, dose: 25.0 mg/kg/injection, schedule: Q01DX009 (ip), vehicle: saline with Tween-80 115 % of control and 92 % of control | endpoint: mean survival time, dose: 50.0 mg/kg/injection, schedule: Q01DX009 (ip), vehicle: saline with Tween-80 103 % of control | endpoint: mean survival time, dose: 200.0 mg/kg/injection, schedule: Q01DX009 (ip), vehicle: saline with Tween-80 123 % of control and 94 % of control | endpoint: mean survival time, dose: 400.0 mg/kg/injection, schedule: Q01DX009 (ip), vehicle: saline with Tween-80 110 % of control
